# pIC50: −log10 of the molar value.
# Test system: SYO-1 complex spheroid growth, percent test/control
# Test: Anticancer human tumor SYO-1 cell line growth inhibition [Asc];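 also: compound exposure lasted 7 days after spheroids grew 3 days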;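 as to viability, T/C: 100% = DMSO vehicle control viability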
# Conditions: for pIC50: curve of first compound; for viability, T/C: stronger effect = lower value
# How it was run: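 Complex solid-tumor spheroids incorporating human endothelial and mesenchymal stem cells received single agents or combinations over half-log dilution ranges anchored to clinical Cmax.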
# [1] = second compound 0.0316 µM, first compound 0.0316 µM
# [2] = second compound 0.0316 µM, first compound 0.1 µM
# [3] = second compound 0.0316 µM, first compound 0.316 µM
# [4] = second compound 0.0316 µM, first compound 1 µM
# [5] = second compound 0.0316 µM, first compound 3.16 µM
# [6] = second compound 0.0316 µM, first compound 10 µM
# [7] = second compound 0.1 µM, first compound 0.0316 µM
# [8] = second compound 0.1 µM, first compound 0.1 µM
# [9] = second compound 0.1 µM, first compound 0.316 µM
# [10] = second compound 0.1 µM, first compound 1 µM
# [11] = second compound 0.1 µM, first compound 3.16 µM
# [12] = second compound 0.1 µM, first compound 10 µM
# [13] = second compound 0.316 µM, first compound 0.0316 µM
# [14] = second compound 0.316 µM, first compound 0.1 µM
# [15] = second compound 0.316 µM, first compound 0.316 µM
# [16] = second compound 0.316 µM, first compound 1 µM
# [17] = second compound 0.316 µM, first compound 3.16 µM
# [18] = second compound 0.316 µM, first compound 10 µM
# [19] = second compound 1 µM, first compound 0.0316 µM
# [20] = second compound 1 µM, first compound 0.1 µM
# [21] = second compound 1 µM, first compound 0.316 µM
# [22] = second compound 1 µM, first compound 1 µM
# [23] = second compound 1 µM, first compound 3.16 µM
# [24] = second compound 1 µM, first compound 10 µM
structure (smiles),measurement,setting,value
C=C(F)C(=O)N1CCN(c2nc(OCC3CCCN3C)nc3c2CCN(c2cccc4cccc(Cl)c24)C3)CC1CC#N (configuration not stated) + CNC(C)C(=O)NC1CN(S(=O)(=O)c2cccc(S(=O)(=O)N3CCC4CCC(C(=O)NC(c5ccccc5)c5ccccc5)N4C(=O)C(NC(=O)C(C)NC)C3)c2)CCC2CCC(C(=O)NC(c3ccccc3)c3ccccc3)N2C1=O,pIC50,second compound 0.01 µM,5.25
same,pIC50,second compound 0.0316 µM,5.25
same,pIC50,second compound 0.1 µM,5.25
same,pIC50,second compound 0.316 µM,5.26
same,pIC50,second compound 1 µM,5.27
same,"viability, T/C","second compound 0.01 µM, first compound 0.0316 µM",99.1%
same,"viability, T/C","second compound 0.01 µM, first compound 0.1 µM",113%
same,"viability, T/C","second compound 0.01 µM, first compound 0.316 µM",104%
same,"viability, T/C","second compound 0.01 µM, first compound 1 µM",99.7%
same,"viability, T/C","second compound 0.01 µM, first compound 3.16 µM",101%
same,"viability, T/C","second compound 0.01 µM, first compound 10 µM",0.23%
same,"viability, T/C",[1],96.7%
same,"viability, T/C",[2],103%
same,"viability, T/C",[3],101%
same,"viability, T/C",[4],98.3%
same,"viability, T/C",[5],99%
same,"viability, T/C",[6],0.22%
same,"viability, T/C",[7],100%
same,"viability, T/C",[8],105%
same,"viability, T/C",[9],95%
same,"viability, T/C",[10],97.2%
same,"viability, T/C",[11],98.6%
same,"viability, T/C",[12],0.21%
same,"viability, T/C",[13],98.5%
same,"viability, T/C",[14],103%
same,"viability, T/C",[15],103%
same,"viability, T/C",[16],88.7%
same,"viability, T/C",[17],95%
same,"viability, T/C",[18],0.23%
same,"viability, T/C",[19],104%
same,"viability, T/C",[20],104%
same,"viability, T/C",[21],101%
same,"viability, T/C",[22],94.2%
same,"viability, T/C",[23],92.3%
same,"viability, T/C",[24],0.26%
CCN1C(C(=O)NC23CCC(C(=O)O)(CC2)CC3)C(c2cccc(Cl)c2F)C2(C(=O)Nc3cc(Cl)ccc32)C12CCCCC2 (configuration not stated) + CNC(C)C(=O)NC1CN(S(=O)(=O)c2cccc(S(=O)(=O)N3CCC4CCC(C(=O)NC(c5ccccc5)c5ccccc5)N4C(=O)C(NC(=O)C(C)NC)C3)c2)CCC2CCC(C(=O)NC(c3ccccc3)c3ccccc3)N2C1=O,pIC50,second compound 0.01 µM,6.84
same,pIC50,second compound 0.0316 µM,6.92
same,pIC50,second compound 0.1 µM,6.96
same,pIC50,second compound 0.316 µM,6.94
same,pIC50,second compound 1 µM,7.02
same,"viability, T/C","second compound 0.01 µM, first compound 0.00949 µM",104%
same,"viability, T/C","second compound 0.01 µM, first compound 0.03 µM",95%
same,"viability, T/C","second compound 0.01 µM, first compound 0.0949 µM",71.8%
same,"viability, T/C","second compound 0.01 µM, first compound 0.3 µM",13.8%
same,"viability, T/C","second compound 0.01 µM, first compound 0.949 µM",1.75%
same,"viability, T/C","second compound 0.01 µM, first compound 3 µM",0.88%
same,"viability, T/C","second compound 0.0316 µM, first compound 0.00949 µM",98.9%
same,"viability, T/C","second compound 0.0316 µM, first compound 0.03 µM",96.6%
same,"viability, T/C","second compound 0.0316 µM, first compound 0.0949 µM",60.3%
same,"viability, T/C","second compound 0.0316 µM, first compound 0.3 µM",9.46%
same,"viability, T/C","second compound 0.0316 µM, first compound 0.949 µM",1.09%
same,"viability, T/C","second compound 0.0316 µM, first compound 3 µM",0.76%
same,"viability, T/C","second compound 0.1 µM, first compound 0.00949 µM",99.2%
same,"viability, T/C","second compound 0.1 µM, first compound 0.03 µM",90.2%
same,"viability, T/C","second compound 0.1 µM, first compound 0.0949 µM",56.5%
same,"viability, T/C","second compound 0.1 µM, first compound 0.3 µM",10.5%
same,"viability, T/C","second compound 0.1 µM, first compound 0.949 µM",0.93%
same,"viability, T/C","second compound 0.1 µM, first compound 3 µM",0.63%
same,"viability, T/C","second compound 0.316 µM, first compound 0.00949 µM",102%
same,"viability, T/C","second compound 0.316 µM, first compound 0.03 µM",89.8%
same,"viability, T/C","second compound 0.316 µM, first compound 0.0949 µM",59.6%
same,"viability, T/C","second compound 0.316 µM, first compound 0.3 µM",8.45%
same,"viability, T/C","second compound 0.316 µM, first compound 0.949 µM",0.85%
same,"viability, T/C","second compound 0.316 µM, first compound 3 µM",0.95%
same,"viability, T/C","second compound 1 µM, first compound 0.00949 µM",112%
same,"viability, T/C","second compound 1 µM, first compound 0.03 µM",88.9%
same,"viability, T/C","second compound 1 µM, first compound 0.0949 µM",54.7%
same,"viability, T/C","second compound 1 µM, first compound 0.3 µM",5.93%
same,"viability, T/C","second compound 1 µM, first compound 0.949 µM",0.81%
same,"viability, T/C","second compound 1 µM, first compound 3 µM",0.72%
O=C(c1cc(Cc2n[nH]c(=O)c3ccccc23)ccc1F)N1CCN(C(=O)C2CC2)CC1 + Cc1c(S(C)(=O)=O)c(-c2cc(F)cc(N3CCN(c4ccc(NS(=O)(=O)c5ccc(NC(CCN6CCC(C(=O)OCCCP(=O)(O)O)CC6)CSc6ccccc6)c(S(=O)(=O)C(F)(F)F)c5)cc4)CC3)c2)c(-c2ccc(Cl)cc2)n1C(C)C,pIC50,second compound 0.0316 µM,5.74
same,pIC50,second compound 0.1 µM,5.73
same,pIC50,second compound 0.316 µM,5.79
same,pIC50,second compound 1 µM,5.79
same,pIC50,second compound 3.16 µM,5.93
same,pIC50,second compound 10 µM,6.21
same,"viability, T/C",[1],106%
same,"viability, T/C",[2],90.1%
same,"viability, T/C",[3],96.5%
same,"viability, T/C",[4],85.1%
same,"viability, T/C",[5],18.6%
same,"viability, T/C",[6],4.21%
same,"viability, T/C",[7],105%
same,"viability, T/C",[8],93.3%
same,"viability, T/C",[9],89.7%
same,"viability, T/C",[10],92.5%
same,"viability, T/C",[11],13.1%
same,"viability, T/C",[12],3.38%
same,"viability, T/C",[13],95.6%
same,"viability, T/C",[14],92%
same,"viability, T/C",[15],95.7%
same,"viability, T/C",[16],82.2%
same,"viability, T/C",[17],6.13%
same,"viability, T/C",[18],2.3%
same,"viability, T/C",[19],89.7%
same,"viability, T/C",[20],108%
same,"viability, T/C",[21],87.2%
same,"viability, T/C",[22],84.9%
same,"viability, T/C",[23],4.13%
same,"viability, T/C",[24],1.66%
same,"viability, T/C","second compound 3.16 µM, first compound 0.0316 µM",93.4%
same,"viability, T/C","second compound 3.16 µM, first compound 0.1 µM",88.7%
same,"viability, T/C","second compound 3.16 µM, first compound 0.316 µM",83.9%
same,"viability, T/C","second compound 3.16 µM, first compound 1 µM",57.7%
same,"viability, T/C","second compound 3.16 µM, first compound 3.16 µM",2.51%
same,"viability, T/C","second compound 3.16 µM, first compound 10 µM",1.72%
same,"viability, T/C","second compound 10 µM, first compound 0.0316 µM",83.7%
same,"viability, T/C","second compound 10 µM, first compound 0.1 µM",81.1%
same,"viability, T/C","second compound 10 µM, first compound 0.316 µM",69.8%
same,"viability, T/C","second compound 10 µM, first compound 1 µM",35.9%
same,"viability, T/C","second compound 10 µM, first compound 3.16 µM",2.29%
same,"viability, T/C","second compound 10 µM, first compound 10 µM",2.09%
